Measurements published in patent US12616760B2, “Synthetic cyclic peptide mimetics” (priority 2020, dated 2026).
Read-outs that look alike come from different tables or passages of the source. Square brackets hold non-standard residues; d marks the D form. Peptide text beside a SMILES is read from it. Nle = CCCC[C@H](N)C(=O)O; azaGly = NNC(=O)O

Legend:
[1] = target: T1, Aβ40 (Homo sapiens, UniProt P05067); assay: Thioflavin T (ThT) fluorescence assay of Aβ40 aggregation; assay type: biochemical; settings: for Inhibition of amyloidogenic activity(%) / Inhibition of amyloidogenic activity: ThT; for Inhibition of amyloidogenic activity: Table 4
T1 construct: The extent of Aβ40 aggregation in the presence of increasing concentrations of azacyclopeptides
Procedure: Amyloid generation can be identified and quantified using the thioflavin T (ThT) fluorescence dye assay. […] Agents that bind and inhibit aggregation of Aβ diminish ThT fluorescence relative to untreated Aβ. The extent of Aβ40 aggregation in the presence of increasing concentrations of azacyclopeptides and azasulfurylcyclopeptide 55 was evaluated by the ThT assay. Fluorescence of Aβ40 that was aged for 48 h was used as control, defined as 0% anti-amyloidogenic activity, and compared with fluorescence in the presence of cyclic peptide mimics at increasing concentrations to measure anti-amyloidogenic activity.

[2] = system: rat pheochromocytoma PC12 cells; assay type: cell-based; set-up: Cells survival (%): concentration or dose not given beside the values; settings: for Cells survival (%): PC12, MTT
Procedure: Considering that self-assembly and aggregation of Aβ are key components of AD pathogenesis, the ability of azaGly-cyclopeptides 2-7 to reduce Aβ-induced toxicity was next tested in rat pheochromocytoma PC12 cells. Cells were incubated for 24 h with Aβ40 (10 μM) that had been aged for 48 h in the presence and absence of increasing concentrations of the azacyclopeptides. Cell viability was assessed using the 3-(4,5-dimethylthiazol-2-yl)-2,5-diphenyltetrazolium bromide (MTT) survival assay (Table 2). In this assay, viable cells reduce permeable MTT by active metabolism to produce a purple-colored formazan product with absorbance maximum near 570 nm. Dead cells lose the ability to convert MTT into formazan. The quantity of formazan is therefore directly proportional to the number of viable cells and measurable over time by recording changes in absorbance using a spectrophotometer. Neurons are susceptible to the lethal effects of misfolded proteins which are likely to aggregate at increased concentration. The pheochromocytoma (PC12) cell line is commonly used in in vitro studies to examine neuronal variation and neurotoxicity as a model of neurodegenerative disease.

[3] = Aβ:peptide 1:1, 10 μM soluble Aβ40
[4] = Aβ:peptide 1:5, 10 μM soluble Aβ40
[5] = Aβ:peptide 1:10, 10 μM soluble Aβ40
[6] = Aβ:peptide 1:0.1, 10 μM soluble Aβ40

T1 sequence (P05067 672-711 limits assumed): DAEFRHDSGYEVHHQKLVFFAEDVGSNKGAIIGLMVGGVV

Molecule	Inhibition of amyloidogenic activity ([1]; Aβ:peptide 1:1) [%]	Inhibition of amyloidogenic activity ([1]; Aβ:peptide 1:5) [%]	Inhibition of amyloidogenic activity ([1]; Aβ:peptide 1:10) [%]	Inhibition of amyloidogenic activity(%) ([1]; Table 5, Aβ:peptide 1:1)	Inhibition of amyloidogenic activity(%) ([1]; Table 5, Aβ:peptide 1:5)	Inhibition of amyloidogenic activity(%) ([1]; Table 5, Aβ:peptide 1:10)	Cells survival (%) ([2]; Table 5, Aβ:peptide 1:1)	Cells survival (%) ([2]; Table 5, Aβ:peptide 1:5)	Cells survival (%) ([2]; Table 4, Aβ:peptide 1:1)	Cells survival (%) ([2]; Table 4, Aβ:peptide 1:5)	further results
CCCC[C@@H]1NC(=O)[C@@H](CC(C)C)NC(=O)[C@H](CCCCN)NC(=O)[C@@H](CO)NC(=O)[C@H](Cc2c[nH]cn2)NC(=O)[C@@H](Cc2c[nH]c3ccccc23)NC1=O [Compound 1, Cyclo-L-lysine-D-leucine-L-norleucine-D-tryptophan-L-histidine-D-serine, reference compound] (cyclo(K[dL][Nle][dW]H[dS]))	44.6	84.7	92.8	44.6	84.7	92.8					Inhibition of amyloidogenic activity(%) [1, 3]: 44.6%; Inhibition of amyloidogenic activity(%) [1, 4]: 84.7%; Inhibition of amyloidogenic activity(%) [1, 5]: 92.8%
CCCC[C@@H]1NC(=O)[C@@H](CC(C)C)NC(=O)NNC(=O)[C@@H](CO)NC(=O)[C@H](Cc2c[nH]cn2)NC(=O)[C@@H](Cc2c[nH]c3ccccc23)NC1=O [Compound 2, c(D-Leu-L-Nle-D-Trp-L-His-D-Ser-Gly*)] (cyclo([azaGly][dL][Nle][dW]H[dS]))											Inhibition of amyloidogenic activity(%) [1, 6]: 63.9%; Inhibition of amyloidogenic activity(%) [1, 3]: 76.7%; effect on lag phase and ThT fluorescence ([1]; above stoichiometric concentrations): promoted significantly fibrilization of Aβ shortening the lag-phase and increasing ThT fluorescence; effect on lag phase and ThT fluorescence ([1]; at and below stoichiometric concentrations): prolonged dramatically the lag-phase and reduced ThT fluorescence; cell survival ([2]; 24 h): 87%
CCCC[C@@H]1NC(=O)[C@@H](CC(C)C)NC(=O)[C@H](CCCCN)NC(=O)[C@@H](CO)NC(=O)NNC(=O)[C@@H](Cc2c[nH]c3ccccc23)NC1=O [Compound 4, c(D-Leu-L-Nle-D-Trp-Gly*-D-Ser-L-Lys)] (cyclo(K[dL][Nle][dW][azaGly][dS]))											Inhibition of amyloidogenic activity(%) [1, 3]: 50.2%; Inhibition of amyloidogenic activity(%) [1, 4]: 75%; Inhibition of amyloidogenic activity(%) [1, 5]: 68.8%
CCCC[C@@H]1NC(=O)[C@@H](CC(C)C)NC(=O)[C@H](CCCCN)NC(=O)[C@@H](CO)NC(=O)[C@H](Cc2c[nH]cn2)NC(=O)NNC1=O [Compound 5, c(D-Leu-L-Nle-Gly*-L-His-D-Ser-L-Lys)] (cyclo(K[dL][Nle][azaGly]H[dS]))											Inhibition of amyloidogenic activity(%) [1, 6]: 55.3%; Inhibition of amyloidogenic activity(%) [1, 3]: 89.8%; Inhibition of amyloidogenic activity(%) [1, 4]: 91.1%; Inhibition of amyloidogenic activity(%) [1, 5]: 90.8%; effect on lag phase and ThT fluorescence ([1]; incubation with Aβ): dramatically prolonged the lag phase and reduced the ThT fluorescence
CC(C)C[C@H]1NC(=O)[C@H](CCCCN)NC(=O)[C@@H](CO)NC(=O)[C@H](Cc2c[nH]cn2)NC(=O)[C@@H](Cc2c[nH]c3ccccc23)NC(=O)NNC1=O [Compound 6, c(D-Leu-Gly*-D-Trp-L-His-D-Ser-L-Lys)] (cyclo(K[dL][azaGly][dW]H[dS]))											Inhibition of amyloidogenic activity(%) [1, 4]: 80.1%; Inhibition of amyloidogenic activity(%) [1, 5]: 81.8%; effect on lag phase and ThT fluorescence ([1]; incubation with Aβ): dramatically prolonged the lag phase and reduced the ThT fluorescence
CCCC[C@@H]1NC(=O)NNC(=O)[C@H](CCCCN)NC(=O)[C@@H](CO)NC(=O)[C@H](Cc2c[nH]cn2)NC(=O)[C@@H](Cc2c[nH]c3ccccc23)NC1=O [Compound 7, c(Gly*-L-Nle-D-Trp-L-His-D-Ser-L-Lys)] (cyclo(K[azaGly][Nle][dW]H[dS]))											Inhibition of amyloidogenic activity(%) [1, 4]: 78.8%; Inhibition of amyloidogenic activity(%) [1, 5]: 80.5%; effect on lag phase and ThT fluorescence ([1]; incubation with Aβ): dramatically prolonged the lag phase and reduced the ThT fluorescence
c(4-Phe*-L-Nlc-D-Trp-L-His-D-Ser-L-Lys) [Compound 20]				1.6	48.4	68.4	73.0	84.9			
c(D-Leu-L-Nle-D-Trp-D-His-IPrTyr*-L-Lys) [Compound 11]				3.5	54.7	54.2	72.4	74.3			
c(D-Leu-L-Nle-D-Trp-L-His-D-Ser-Lys*) [Compound 8]	54.4	77.8	80.9						80.1	91.3	
c(D-Leu-L-Nle-D-Trp-L-His-Gly^-L-Lys) [Compound 55]							76.9	106			
c(D-Leu-L-Nle-D-Trp-L-His-Hse*-L-Lys) [Compound 9]	8.3	77.9	77.2						82.8	97.9	
c(D-Leu-L-Nle-D-Trp-L-His-IPrTyr*-L-Lys) [Compound 10]				8.2	85.2	86.2	75.4	83.4			
c(D-Leu-L-Nle-D-Trp-Phe*-D-Ser-L-Lys) [Compound 12]				54.4	77.7	80.9	70.1	87.9			
c(D-Leu-L-Nle-D-Trp-Pra*-D-Ser-L-Lys) [Compound 14]				76.9	81.2	81.4	71.7	83.5			
c(D-Leu-L-Nle-D-Trp-Tal*-D-Ser-L-Lys) [Compound 13]	58.0	72.6	78.4						70.8	96.3	
c(D-Leu-L-Nle-Itr*-L-His-D-Ser-L-Lys) [Compound 15]	78.0	81.6	86.1						78.8	71.7	
c(D-Leu-Nle*-D-Trp-L-His-D-Ser-L-Lys) [Compound 16]	72.9	76.4	85.1						86.3	94.5	
c(D-Leu-Phe*-D-Trp-L-His-D-Ser-L-Lys) [Compound 17]				3.5	36.9	79.8	61.8	69.5			
c(Leu*-L-Nlc-D-Trp-L-His-D-Ser-L-Lys) [Compound 18]	15.4	17.1	37.5						72.8	76.3	
c(Phe*-L-Nle-D-Trp-L-His-D-Ser-L-Lys) [Compound 19]				12.5	54.5	61.2	73.0	74.5			
